Reference: ChEMBL document CHEMBL4811270, “Nitrile-based peptoids as cysteine protease inhibitors” (Bioorg Med Chem, 2021)

How the values were obtained:
[1] = biological target: Cruzipain (Trypanosoma cruzi, UniProt P25779); assay: Inhibition of Trypanosoma cruzi cruzain using Z-FR-AMC as substrate by fluorescence assay
[2] = biological target: T1, Procathepsin L (Homo sapiens, UniProt P07711); assay: Inhibition of recombinant human liver CatL at 10 uM using Z-FR-AMC as substrate by fluorescence assay relative to control
Target sequence in this assay (P07711 114-333 limits assumed): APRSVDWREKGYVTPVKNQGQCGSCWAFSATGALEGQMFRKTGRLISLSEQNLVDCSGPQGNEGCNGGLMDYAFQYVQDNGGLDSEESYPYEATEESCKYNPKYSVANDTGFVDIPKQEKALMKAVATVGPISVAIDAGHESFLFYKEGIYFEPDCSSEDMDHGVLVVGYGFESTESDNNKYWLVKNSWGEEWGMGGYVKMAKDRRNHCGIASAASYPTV

[3] = biological target: T2, Cathepsin B (Homo sapiens, UniProt P07858); assay: Inhibition of recombinant human liver CatB at 10 uM using Z-FR-AMC as substrate by fluorescence assay relative to control
[4] = biological target: T3, Cathepsin K (Homo sapiens) (UniProt P43235); assay: Inhibition of recombinant human liver CatK at 10 uM using Z-FR-AMC as substrate by fluorescence assay relative to control
T3 sequence (whole entry): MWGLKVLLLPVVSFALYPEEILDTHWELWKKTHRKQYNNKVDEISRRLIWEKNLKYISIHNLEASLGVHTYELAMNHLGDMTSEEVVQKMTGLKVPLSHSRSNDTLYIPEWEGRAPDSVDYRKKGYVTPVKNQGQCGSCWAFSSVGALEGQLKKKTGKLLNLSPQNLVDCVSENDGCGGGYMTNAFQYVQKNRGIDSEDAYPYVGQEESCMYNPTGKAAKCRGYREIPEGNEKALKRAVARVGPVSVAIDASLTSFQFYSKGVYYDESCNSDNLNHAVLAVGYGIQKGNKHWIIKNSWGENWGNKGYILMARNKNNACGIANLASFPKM

[5] = biological target: T4, Cathepsin S (Homo sapiens, UniProt P25774); assay: Inhibition of recombinant human liver CatS at 10 uM using Z-FR-AMC as substrate by fluorescence assay relative to control
Target sequence in this assay (P25774 115-331 limits assumed): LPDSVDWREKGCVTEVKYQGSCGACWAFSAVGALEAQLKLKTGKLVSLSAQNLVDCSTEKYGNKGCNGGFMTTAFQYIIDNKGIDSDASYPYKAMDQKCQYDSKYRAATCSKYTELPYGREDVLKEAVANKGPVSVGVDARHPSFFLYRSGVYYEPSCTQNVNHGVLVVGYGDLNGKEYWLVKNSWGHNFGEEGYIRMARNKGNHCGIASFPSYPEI

[6] = biological target: T1, Procathepsin L; assay: Inhibition of recombinant human liver CatL using Z-FR-AMC as substrate by fluorescence assay
Target sequence in this assay (P07711 whole entry): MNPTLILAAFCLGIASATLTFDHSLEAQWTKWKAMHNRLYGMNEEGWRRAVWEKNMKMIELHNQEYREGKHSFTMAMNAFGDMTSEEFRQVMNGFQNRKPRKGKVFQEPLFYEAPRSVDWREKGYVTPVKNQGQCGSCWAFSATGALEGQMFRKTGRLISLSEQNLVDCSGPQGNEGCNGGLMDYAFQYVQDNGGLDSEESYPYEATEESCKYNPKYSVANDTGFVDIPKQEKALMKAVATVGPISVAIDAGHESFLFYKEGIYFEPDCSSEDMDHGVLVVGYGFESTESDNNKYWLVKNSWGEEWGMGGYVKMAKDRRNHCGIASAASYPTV

[7] = biological target: T4, Cathepsin S; assay: Inhibition of recombinant human liver CatS using Z-FR-AMC as substrate by fluorescence assay
Target sequence in this assay (P25774 whole entry): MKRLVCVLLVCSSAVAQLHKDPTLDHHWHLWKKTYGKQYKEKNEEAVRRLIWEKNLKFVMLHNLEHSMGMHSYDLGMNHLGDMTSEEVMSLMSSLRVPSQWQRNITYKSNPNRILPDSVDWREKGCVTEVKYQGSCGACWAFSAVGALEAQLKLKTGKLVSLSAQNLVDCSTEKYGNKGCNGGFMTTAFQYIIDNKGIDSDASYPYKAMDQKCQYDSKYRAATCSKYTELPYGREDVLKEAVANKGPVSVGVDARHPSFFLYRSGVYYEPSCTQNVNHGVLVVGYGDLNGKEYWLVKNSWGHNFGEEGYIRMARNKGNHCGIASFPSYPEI

[8] = biological target: Cruzipain (Trypanosoma cruzi) (UniProt P25779); assay: Inhibition of Trypanosoma cruzi cruzain at 10 uM using Z-FR-AMC as substrate by fluorescence assay relative to control
Sequence of Cruzipain (Trypanosoma cruzi) (P25779 123-467 limits assumed): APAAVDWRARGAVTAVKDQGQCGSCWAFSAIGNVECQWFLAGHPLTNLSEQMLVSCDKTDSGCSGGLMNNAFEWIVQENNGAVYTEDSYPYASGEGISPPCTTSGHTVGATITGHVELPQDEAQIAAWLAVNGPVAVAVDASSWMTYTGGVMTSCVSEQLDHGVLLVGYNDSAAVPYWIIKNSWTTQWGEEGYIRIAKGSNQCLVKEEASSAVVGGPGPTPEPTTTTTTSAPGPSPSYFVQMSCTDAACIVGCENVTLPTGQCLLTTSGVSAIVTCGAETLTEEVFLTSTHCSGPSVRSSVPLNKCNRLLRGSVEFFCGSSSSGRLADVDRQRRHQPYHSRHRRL

[9] = biological target: T5, Cathepsin K (Homo sapiens, UniProt P43235); assay: Inhibition of recombinant human liver CatK using Z-FR-AMC as substrate by fluorescence assay
T5 sequence (P43235 whole entry): T3 sequence (whole entry)

[10] = biological target: T2, Cathepsin B; assay: Inhibition of recombinant human liver CatB using Z-FR-AMC as substrate by fluorescence assay

Sequence of Cruzipain (P25779 whole entry): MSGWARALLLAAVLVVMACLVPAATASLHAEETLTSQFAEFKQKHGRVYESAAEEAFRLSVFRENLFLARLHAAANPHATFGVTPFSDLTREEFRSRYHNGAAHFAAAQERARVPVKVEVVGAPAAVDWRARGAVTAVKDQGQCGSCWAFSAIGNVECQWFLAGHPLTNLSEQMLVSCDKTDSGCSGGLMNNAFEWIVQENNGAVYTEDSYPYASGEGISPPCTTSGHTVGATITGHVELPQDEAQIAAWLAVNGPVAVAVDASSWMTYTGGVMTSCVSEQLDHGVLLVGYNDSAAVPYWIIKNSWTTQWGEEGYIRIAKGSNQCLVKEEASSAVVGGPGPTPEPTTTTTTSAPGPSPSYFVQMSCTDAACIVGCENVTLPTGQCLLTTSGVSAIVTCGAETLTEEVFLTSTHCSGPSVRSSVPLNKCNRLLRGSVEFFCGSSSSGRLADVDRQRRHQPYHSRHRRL

Ki [1] | inhibition [2] | inhibition [3] | inhibition [4] | inhibition [5] | Ki [6] | Ki [7] | inhibition [8] | Ki [9] | Ki [10] | Structure (SMILES)
– | – | > 95% | 68% | – | 2.51 µM | 2 µM | 87% | – | – | N#CCNC(=O)CN(Cc1ccccc1)S(=O)(=O)c1cccc(Cl)c1
0.158 µM | > 95% | – | > 95% | > 95% | – | – | – | – | 7.94 µM | Cn1nc(C(C)(C)C)cc1C(=O)N(CC(=O)NCC#N)Cc1cccc(Cl)c1
0.251 µM | > 95% | – | > 95% | 89% | – | – | – | – | 3.16 µM | N#CC1(NC(=O)CN(Cc2ccccc2)C(=O)c2ccc(-c3ccccc3)cc2)CC1
7.94 µM | 82% | 91% | – | – | – | 5.01 µM | – | 0.398 µM | – | N#CC1(NC(=O)CN(Cc2ccccc2)C(=O)c2ccccc2)CC1
3.16 µM | – | 66% | 86% | – | 10 µM | 6.31 µM | – | – | – | N#CCNC(=O)CN(Cc1ccccc1)C(=O)c1ccc(-c2ccccc2)cc1
6.31 µM | > 95% | 90% | – | – | – | 7.94 µM | – | 0.251 µM | – | CC(C)(C#N)NC(=O)CN(Cc1ccccc1)C(=O)c1ccccc1
– | – | 87% | > 95% | – | 6.31 µM | 10 µM | 34% | – | – | N#CCNC(=O)CN(Cc1ccccc1)C(=O)c1cccc(I)c1
0.2 µM | – | – | – | – | – | – | – | – | 7.94 µM | N#CC1(NC(=O)[C@H](Cc2ccccc2)NC(=O)c2ccccc2)CC1
– | – | 80% | – | 84% | 3.16 µM | – | 87% | 0.316 µM | – | Cn1nc(C(C)(C)C)cc1C(=O)N(CC(=O)N[C@H](C#N)Cc1ccccc1)Cc1ccccc1

The remaining lines, values behind:

Structure (SMILES) | Ki [1] | inhibition [2] | inhibition [3] | inhibition [4] | inhibition [5] | Ki [6] | Ki [7] | inhibition [8] | Ki [9] | Ki [10]
N#CC1(NC(=O)CN(Cc2ccccc2)C(=O)Cc2ccccc2)CC1 | 2.51 µM | 87% | > 95% | 58% | > 95% | – | – | – | – | –
Cn1nc(C(C)(C)C)cc1C(=O)N(CC(=O)NCC#N)Cc1ccccc1 | – | 88% | 93% | 58% | 84% | – | – | > 95% | – | –
COc1ccc(-c2ccc(C(=O)N(CC(=O)NC3(C#N)CC3)Cc3ccccc3)cc2)cc1 | 10 µM | 68% | 78% | – | – | – | 3.98 µM | – | 10 µM | –
COc1ccc(-c2ccc(C(=O)N(CC(=O)NCC#N)Cc3ccccc3)cc2)cc1 | 5.01 µM | > 95% | 83% | – | – | – | 0.794 µM | – | 2.51 µM | –
Cn1nc(C(C)(C)C)cc1C(=O)N(CC(=O)NC1(C#N)CC1)Cc1ccccc1 | 6.31 µM | 85% | – | 54% | > 95% | – | – | – | – | 3.98 µM
N#CCNC(=O)CN(Cc1ccccc1)C(=O)c1ccccc1 | 6.31 µM | – | 85% | > 95% | – | 0.631 µM | 5.01 µM | – | – | –
